Patent publication US20230282357A1, “ACUTE LIVER PATIENT MANAGEMENT” (MERIDIAN BIOSCIENCE ISRAEL LTD., priority 2020, published 2023)
Like-named read-outs stand apart in the source and are kept apart here.

Assays:
CYP1A2 metabolism [1] = biological target: T1, CYP1A2 metabolism (Homo sapiens, UniProt P05177); experiment: 13C-methacetin breath test (MBT), PDR-peak in ALF/ALI patients
T1 sequence (P05177 1-516): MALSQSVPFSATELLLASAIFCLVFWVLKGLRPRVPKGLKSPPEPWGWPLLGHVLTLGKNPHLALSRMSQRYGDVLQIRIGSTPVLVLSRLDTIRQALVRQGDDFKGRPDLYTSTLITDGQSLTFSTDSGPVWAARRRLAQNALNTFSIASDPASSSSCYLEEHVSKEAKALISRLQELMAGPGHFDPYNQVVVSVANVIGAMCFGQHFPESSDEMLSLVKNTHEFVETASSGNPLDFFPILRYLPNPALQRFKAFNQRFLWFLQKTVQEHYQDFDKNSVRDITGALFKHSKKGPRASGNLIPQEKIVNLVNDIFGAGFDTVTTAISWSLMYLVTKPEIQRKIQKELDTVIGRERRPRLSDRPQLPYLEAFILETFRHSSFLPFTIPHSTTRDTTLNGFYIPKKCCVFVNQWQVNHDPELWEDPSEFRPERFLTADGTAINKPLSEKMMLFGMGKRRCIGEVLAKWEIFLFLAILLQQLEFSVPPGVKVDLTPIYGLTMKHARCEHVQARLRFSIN
Method: (§1) A ^13C-methacetin breath test (MBT), which assays CYP1A2 metabolism, for assessing functional liver capacity and its changes over time, was utilized to predict transplant-free survival.
(§2) Method: Eligible patients with ALF or non-acetaminophen (APAP) ALI underwent ^13C-MBT at day 1, 2, 3, 5 and 7 after enrollment, unless discharged, transplanted or died. 75 mg of ^13C-methacetin was administered orally or via a nasogastric tube, and exhaled ^13CO2 measured for up to 60 minutes using the BreathID® (Exalenz Bioscience Ltd., Modi’in, Israel). The percent dose recovery (PDR) peak was determined on day 1 or 2 and correlated with 21-day outcome.

[2] = human, in vivo
CYP1A2 metabolism [3] = biological target: T1, CYP1A2 metabolism; settings: in vivo
Method: as §1, §2

CC(=O)Nc1ccc(O[13CH3])cc1 [^13C-methacetin]
AUROC of PDR-peak as predictor of 21-day transplant free survival (CYP1A2 metabolism [1]; 42 ALF patients, Day 1 or 2 PDR-peak values): 0.82 (95% CI 0.68-0.96) | AUROC of PDR-peak as predictor of 21-day transplant free survival (CYP1A2 metabolism [1]; 42 ALF patients, combined with the ALFSG prognostic index): 0.93 | AUROC of PDR-peak as predictor of 21-day transplant free survival (CYP1A2 metabolism [1]; 42 ALF patients, with inclusion of ALF etiology): 0.89 (95% CI 0.79-0.98) | AUROC of PDR-peak as predictor of 21-day transplant free survival (CYP1A2 metabolism [1]; 56 ALF and ALI patients, day 1 or 2 measures): 0.88 (95% CI 0.79-0.97) | AUROC of PDR-peak as predictor of 21-day transplant free survival (CYP1A2 metabolism [1]; 56 ALF and ALI patients, with inclusion of the etiology of ALI/ALF): 0.92 (95% CI 0.85-0.99) | serial PDR peak results (CYP1A2 metabolism [1]; ALF DILI patient who survived without transplant, FIG. 6): improved from day 2 through day 7 | day 1 or 2 mean PDR-peak (CYP1A2 metabolism [1]; transplant-free survivors (TFS), 75 mg orally or via nasogastric tube, exhaled 13CO2 up to 60 minutes): 9.2 %/h | de-novo or worsening serum cysteine-APAP protein adduct levels on serial testing [2]: None of the first 20 patients | serious adverse events attributable to test device or substrate [2]: no serious adverse events | mean serial PDR-peaks, TFS vs non-TFS (CYP1A2 metabolism [3]): consistently higher | serial PDR peak results (CYP1A2 metabolism [3]): very low PDR-peak during the entire period
